Test results published in BigSolDB 2.1.

N#CC(c1ccc(Cl)cc1)c1c(Cl)cc(-n2ncc(=O)[nH]c2=O)cc1Cl (stereo not given)
solubility (mole fraction)
Details	in DMF	in acetone	in acetonitrile	in ethanol	in ethyl acetate	in isopropanol	in methanol	in n-butanol	in n-propanol	in toluene
283.15 K	0.0254	0.012	0.00825	0.00168	0.0052	0.000798	0.00233	0.000481	0.00118	0.000263
288.15 K	0.028	0.014	0.00972	0.00204	0.00634	0.00102	0.0027	0.000639	0.00146	0.000371
293.15 K	0.0309	0.0162	0.0115	0.00245	0.0077	0.00129	0.00316	0.000851	0.00179	0.00052
298.15 K	0.0339	0.0186	0.0135	0.00293	0.00924	0.00163	0.00369	0.0011	0.00221	0.000692
303.15 K	0.0372	0.0215	0.0157	0.00347	0.0111	0.00204	0.00426	0.00142	0.00268	0.000923
308.15 K	0.0407	0.0247	0.0183	0.00407	0.0132	0.00251	0.00494	0.00181	0.00321	0.00123
313.15 K	0.0444	0.0281	0.0211	0.00476	0.0157	0.00308	0.00566	0.00229	0.00383	0.00162
318.15 K	0.0484	0.032	0.0244	0.00555	0.0185	0.00374	0.00646	0.00288	0.0046	0.00211
323.15 K	0.0527	0.0361	0.0279	0.00641	0.0217	0.00455	0.00737	0.0036	0.00543	0.0027
